Assay results taken from patent EP4722215A1, “AMORPHOUS SUBSTANCE AND CRYSTAL OF DIOXOPIPERIDINE COMPOUND OR PHARMACEUTICALLY ACCEPTABLE SALT THEREOF, PREPARATION METHOD, AND USE” (Jiangsu Hengrui Pharmaceuticals Co., Ltd., priority 2023, dated 2024).
Where a name gives a salt, the structure may show the parent alone.

How the values were obtained:
in vivo = conditions: both, beagle, dog, plasma, po, 2 mg/kg
Method: Beagles were used as test animals. The plasma concentrations of a compound of the present disclosure in beagles at different time points after intragastric (i.g.) administration were determined using an LC/MS/MS method. The pharmacokinetic behavior of the compound of the present disclosure in beagles was studied, and its pharmacokinetic profile was evaluated.
Eight beagles (half male and half female, provided by Jiangsu Johnbio Biotechnology Co., Ltd.) were evenly divided into 2 groups. The animals were fasted overnight and then subjected to intragastric administration.
The administration dose was 2.0 mg/kg, and the administration volume was 5.0 mL/kg.
The samples were then placed into EDTA-K2 anticoagulation test tubes and centrifuged at 10,000 rpm for 2 min (4 °C), and plasma was separated within 1 h and stored at -80 °C before analysis. The procedures from the blood collection to the centrifugation were performed under ice-bath conditions. Access to food was given 3 h after administration.
After administration of different concentrations of the test compounds, the plasma concentrations of the test compounds in the beagles were determined as follows: 50 µL of each of the beagle plasma samples collected at various time points after administration was taken; 25 µL of camptothecin (1 µg/mL) and 450 µL of acetonitrile were added to precipitate protein, and the mixture was vortex-mixed and then centrifuged at 3700 rpm for 10 min; 0.5 µL of the supernatant was taken for LC/MS/MS analysis.

[1] = Pharmacokinetic evaluation in cynomolgus monkeys, intragastric administration, plasma LC/MS/MS; assay type: in vivo; conditions: both sexes, cynomolgus monkey, po, i.g., 2.0 mg/kg
Method: Cynomolgus monkeys were used as test animals.
Eight cynomolgus monkeys (half male and half female, provided by Shanghai Medicilon Inc.) were evenly divided into 2 groups.
Access to food and ad libitum access to water were given 3 h after administration.

[2] = Long-term/accelerated stability study (sealed in aluminum foil bags); assay type: physicochemical; conditions: for Crystal form: up to 6 months
From the text: The results are shown below. Table 16
The results are shown below. Table 20

[3] = Influencing factor stability study (open containers, high temperature / high humidity, 30 days); assay type: physicochemical
Method: Influencing factor stability study: Samples of the free-state form were taken, spread in open containers, and left to stand under high-temperature (40 °C and 60 °C) and high-humidity (RH 75% and RH 92.5%) conditions for 30 days to study its stability.
Influencing factor stability study of salt forms: Samples of the salt forms were taken, spread in open containers, and left to stand under high-temperature (40 °C and 60 °C) and high-humidity (RH 75%) conditions for 30 days to study their stability.

[4] = Dynamic vapor sorption (DVS) hygroscopicity; assay type: physicochemical
androgen receptor (AR) = target: T1, androgen receptor (AR) (Homo sapiens, UniProt P10275, T878A); experiment: Degradation activity on androgen receptor in LNCaP cells (AR ELISA); assay type: cell-based; conditions: 0.1 nM R1881, 24 h
T1 construct: host or cells: LNCaP
Method: After five washes, 100 µL of detection antibody working solution was added. […] After five washes, 100 µL of enzyme conjugate working solution was added. […] After five washes, 100 µL of substrate solution was added.

T1 sequence (P10275 whole entry T878A): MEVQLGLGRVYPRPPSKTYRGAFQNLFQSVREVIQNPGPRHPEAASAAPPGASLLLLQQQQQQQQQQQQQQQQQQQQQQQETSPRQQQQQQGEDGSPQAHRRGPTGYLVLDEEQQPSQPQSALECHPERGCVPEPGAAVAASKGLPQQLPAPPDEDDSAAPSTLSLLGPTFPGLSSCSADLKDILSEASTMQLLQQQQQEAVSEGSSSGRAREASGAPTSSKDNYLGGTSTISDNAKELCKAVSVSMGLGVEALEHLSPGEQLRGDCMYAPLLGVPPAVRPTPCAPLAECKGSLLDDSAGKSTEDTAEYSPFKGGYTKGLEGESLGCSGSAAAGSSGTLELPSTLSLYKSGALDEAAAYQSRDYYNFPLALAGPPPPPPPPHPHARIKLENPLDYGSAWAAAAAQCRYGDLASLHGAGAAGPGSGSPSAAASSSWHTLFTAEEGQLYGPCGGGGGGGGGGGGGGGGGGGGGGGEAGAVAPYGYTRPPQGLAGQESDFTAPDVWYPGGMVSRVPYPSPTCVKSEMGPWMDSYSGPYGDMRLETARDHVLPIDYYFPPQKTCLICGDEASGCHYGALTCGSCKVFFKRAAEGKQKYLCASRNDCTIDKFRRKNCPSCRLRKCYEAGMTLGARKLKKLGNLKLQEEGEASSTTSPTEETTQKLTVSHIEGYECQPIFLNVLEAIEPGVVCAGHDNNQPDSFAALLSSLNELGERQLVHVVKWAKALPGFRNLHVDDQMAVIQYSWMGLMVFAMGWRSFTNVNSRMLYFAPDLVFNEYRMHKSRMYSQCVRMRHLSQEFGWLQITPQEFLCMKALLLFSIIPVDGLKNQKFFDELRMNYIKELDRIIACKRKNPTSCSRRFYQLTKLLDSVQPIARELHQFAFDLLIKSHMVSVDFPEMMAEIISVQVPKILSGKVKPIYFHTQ
T1 sequence (Q96SW2 whole entry partner): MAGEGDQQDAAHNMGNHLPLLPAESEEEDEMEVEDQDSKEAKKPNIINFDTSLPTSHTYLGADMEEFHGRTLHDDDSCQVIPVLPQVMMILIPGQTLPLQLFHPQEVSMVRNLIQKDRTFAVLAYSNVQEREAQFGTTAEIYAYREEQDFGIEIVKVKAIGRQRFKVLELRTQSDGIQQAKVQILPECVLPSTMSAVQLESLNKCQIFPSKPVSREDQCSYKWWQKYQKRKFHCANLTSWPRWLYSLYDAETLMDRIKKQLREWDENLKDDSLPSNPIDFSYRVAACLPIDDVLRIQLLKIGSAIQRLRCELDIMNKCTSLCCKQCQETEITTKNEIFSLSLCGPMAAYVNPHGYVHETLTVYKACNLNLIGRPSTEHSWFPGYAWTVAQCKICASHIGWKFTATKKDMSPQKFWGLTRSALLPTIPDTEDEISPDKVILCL

SMILES: N#Cc1ccc(O[C@H]2CC[C@H](NC(=O)c3ccc(N4CCC(CN5CCN(c6cc7c(cc6F)C(=O)N(C6CCC(=O)NC6=O)C7=O)CC5)CC4)nn3)CC2)cc1Cl (stereo partly drawn) [ARV-110]
- AUC(0-t) (in vivo): 239 ng·h/mL
- CL/F (in vivo): 70.9 mL/min/kg
- Cmax (in vivo): 13 ng/mL
- AUC(0-t) ([1]; read-out: Area under curve AUC0-t): 282 ng·h/mL
- CL/F ([1]; read-out: Clearance rate CL/F): 44.6 mL/min/kg
- Cmax ([1]; read-out: Plasma concentration Cmax): 15.9 ng/mL

SMILES: C[C@H]1CC2(CCN(c3ccc(C(=O)N4CCC(CN5CCN(c6cccc(N[C@H]7CCC(=O)NC7=O)c6)CC5)CC4)cc3F)CC2)CN1c1ccc(C#N)c(Cl)c1 [Amorphous form of maleate]
- Purity (%) ([2]; 25 °C/60% RH, 1 month): 98.9%
- Purity (%) ([2]; 25 °C/60% RH, 2 months): 98.9%
- Purity (%) ([2]; 25 °C/60% RH, 3 months): 98.9%
- Purity (%) ([2]; 25 °C/60% RH, 6 months): 98.7%
- Purity (%) ([2]; 25 °C/60% RH, Initial): 98.9%
- Crystal form ([2]; 25 °C/60% RH): No change
- Purity (%) ([2]; 40 °C/75% RH, 1 month): 98.7%
- Purity (%) ([2]; 40 °C/75% RH, 2 months): 98.6%
- Purity (%) ([2]; 40 °C/75% RH, 3 months): 98.3%
- Purity (%) ([2]; 40 °C/75% RH, 6 months): 94.8%
- Purity (%) ([2]; 40 °C/75% RH, Initial): 98.9%
- Crystal form ([2]; 40 °C/75% RH): No change

SMILES: C[C@H]1CC2(CCN(c3ccc(C(=O)N4CCC(CN5CCN(c6cccc(N[C@H]7CCC(=O)NC7=O)c6)CC5)CC4)cc3F)CC2)CN1c1ccc(C#N)c(Cl)c1 [Amorphous form, 2-chloro-4-((S)-8-(4-(4-((4-(3-(((S)-2,6-dioxopiperidin-3-yl)amino)phenyl)piperazin-1-yl)methyl)piperidine-1-carbonyl)-2-fluorophenyl)-3-methyl-2,8-diazaspiro[4.5]decan-2-yl)benzonitrile]
- Crystal form ([3]; 40 °C, 5 days): No change
- Purity (%) ([3]; 40 °C, 5 days): 98.7%
- Crystal form ([3]; 40 °C, 10 days): No change
- Purity (%) ([3]; 40 °C, 10 days): 98.6%
- Crystal form ([3]; 40 °C, 30 days): No change
- Purity (%) ([3]; 40 °C, 30 days): 98.6%
- Crystal form ([3]; 60 °C, 5 days): No change
- Purity (%) ([3]; 60 °C, 5 days): 98.6%
- Crystal form ([3]; 60 °C, 10 days): No change
- Purity (%) ([3]; 60 °C, 10 days): 98.6%
- Crystal form ([3]; 60 °C, 30 days): No change
- Purity (%) ([3]; 60 °C, 30 days): 98.4%
- Crystal form ([3]; 75% RH, 5 days): No change
- Purity (%) ([3]; 75% RH, 5 days): 98.7%
- Crystal form ([3]; 75% RH, 10 days): No change
- Purity (%) ([3]; 75% RH, 10 days): 98.7%
- Crystal form ([3]; 75% RH, 30 days): No change
- Purity (%) ([3]; 75% RH, 30 days): 98.7%
- Crystal form ([3]; 92.5% RH, 5 days): No change
- Purity (%) ([3]; 92.5% RH, 5 days): 98.7%
- Crystal form ([3]; 92.5% RH, 10 days): No change
- Purity (%) ([3]; 92.5% RH, 10 days): 98.7%
- Crystal form ([3]; 92.5% RH, 30 days): No change
- Purity (%) ([3]; 92.5% RH, 30 days): 98.6%
- Purity (%) ([3]; Initial, 0 days): 98.8%
- chemical stability ([3]; high-temperature and high-humidity conditions): good chemical stability
- Purity (%) ([2]; 25 °C/60% RH, 1 month): 98.7%
- Purity (%) ([2]; 25 °C/60% RH, 2 months): 98.5%
- Purity (%) ([2]; 25 °C/60% RH, 3 months): 98.5%
- Purity (%) ([2]; 25 °C/60% RH, 6 months): 98.5%
- Purity (%) ([2]; 25 °C/60% RH, Initial): 98.8%
- Crystal form ([2]; 25 °C/60% RH): No change
- Purity (%) ([2]; 40 °C/75% RH, 1 month): 98.7%
- Purity (%) ([2]; 40 °C/75% RH, 2 months): 98.4%
- Purity (%) ([2]; 40 °C/75% RH, 3 months): 98.4%
- Purity (%) ([2]; 40 °C/75% RH, 6 months): 98.3%
- Purity (%) ([2]; 40 °C/75% RH, Initial): 98.8%
- Crystal form ([2]; 40 °C/75% RH): No change
- physical and chemical stability ([2]; long-term accelerated conditions for 6 months): good physical and chemical stability

SMILES: C[C@H]1CC2(CCN(c3ccc(C(=O)N4CCC(CN5CCN(c6cccc(N[C@H]7CCC(=O)NC7=O)c6)CC5)CC4)cc3F)CC2)CN1c1ccc(C#N)c(Cl)c1 [Crystal form A of mandelate]
- Crystal form ([3]; 40 °C, 5 days): No change
- Purity (%) ([3]; 40 °C, 5 days): 98.6%
- Crystal form ([3]; 40 °C, 10 days): No change
- Purity (%) ([3]; 40 °C, 10 days): 98.6%
- Crystal form ([3]; 40 °C, 30 days): No change
- Purity (%) ([3]; 40 °C, 30 days): 98.4%
- Crystal form ([3]; 60 °C, 5 days): No change
- Purity (%) ([3]; 60 °C, 5 days): 98.4%
- Crystal form ([3]; 60 °C, 10 days): No change
- Purity (%) ([3]; 60 °C, 10 days): 98.5%
- Crystal form ([3]; 60 °C, 30 days): No change
- Purity (%) ([3]; 60 °C, 30 days): 98.2%
- Crystal form ([3]; 75% RH, 5 days): No change
- Purity (%) ([3]; 75% RH, 5 days): 98.5%
- Crystal form ([3]; 75% RH, 10 days): No change
- Purity (%) ([3]; 75% RH, 10 days): 98.5%
- Crystal form ([3]; 75% RH, 30 days): No change
- Purity (%) ([3]; 75% RH, 30 days): 98.5%
- Purity (%) ([3]; Initial, 0 days): 98.6%
- Purity (%) ([2]; 25 °C/60% RH, 1 month): 99.4%
- Purity (%) ([2]; 25 °C/60% RH, 2 months): 99.3%
- Purity (%) ([2]; 25 °C/60% RH, 3 months): 99.3%
- Purity (%) ([2]; 25 °C/60% RH, 6 months): 99.3%
- Purity (%) ([2]; 25 °C/60% RH, Initial): 99.4%
- Crystal form ([2]; 25 °C/60% RH): No change
- Purity (%) ([2]; 40 °C/75% RH, 1 month): 99.4%
- Purity (%) ([2]; 40 °C/75% RH, 2 months): 99.3%
- Purity (%) ([2]; 40 °C/75% RH, 3 months): 99.3%
- Purity (%) ([2]; 40 °C/75% RH, 6 months): 98.9%
- Purity (%) ([2]; 40 °C/75% RH, Initial): 99.4%
- Crystal form ([2]; 40 °C/75% RH): No change
- hygroscopic weight gain ([4]; accelerated test conditions, 70% RH): about 1.047%
- crystal form before and after DVS testing (XRPD) ([4]; before and after DVS testing): did not change
- hygroscopic weight gain ([4]; extreme conditions, 90% RH): about 2.245%
- hygroscopic weight gain ([4]; normal storage conditions, 25 °C and 60% RH): about 0.833%

SMILES: C[C@H]1CC2(CCN(c3ccc(C(=O)N4CCC(CN5CCN(c6cccc(N[C@H]7CCC(=O)NC7=O)c6)CC5)CC4)cc3F)CC2)CN1c1ccc(C#N)c(Cl)c1 [Crystal form B of succinate]
- Purity (%) ([2]; 25 °C/60% RH, 1 month): 98.5%
- Purity (%) ([2]; 25 °C/60% RH, 2 months): 98.5%
- Purity (%) ([2]; 25 °C/60% RH, 3 months): 98.7%
- Purity (%) ([2]; 25 °C/60% RH, 6 months): 98.6%
- Purity (%) ([2]; 25 °C/60% RH, Initial): 98.7%
- Crystal form ([2]; 25 °C/60% RH): No change
- Purity (%) ([2]; 40 °C/75% RH, 1 month): 98.5%
- Purity (%) ([2]; 40 °C/75% RH, 2 months): 98.5%
- Purity (%) ([2]; 40 °C/75% RH, 3 months): 98.5%
- Purity (%) ([2]; 40 °C/75% RH, 6 months): 98.3%
- Purity (%) ([2]; 40 °C/75% RH, Initial): 98.7%
- Crystal form ([2]; 40 °C/75% RH): No change

SMILES: C[C@H]1CC2(CCN(c3ccc(C(=O)N4CCC(CN5CCN(c6cccc(N[C@H]7CCC(=O)NC7=O)c6)CC5)CC4)cc3F)CC2)CN1c1ccc(C#N)c(Cl)c1 [Crystal form I of hydrochloride]
- Crystal form ([3]; 40 °C, 5 days): No change
- Purity (%) ([3]; 40 °C, 5 days): 97.5%
- Crystal form ([3]; 40 °C, 10 days): No change
- Purity (%) ([3]; 40 °C, 10 days): 96.9%
- Purity (%) ([3]; 40 °C, 30 days): 95.3%
- Crystal form ([3]; 60 °C, 5 days): No change
- Purity (%) ([3]; 60 °C, 5 days): 97.2%
- Crystal form ([3]; 60 °C, 10 days): No change
- Purity (%) ([3]; 60 °C, 10 days): 96.5%
- Purity (%) ([3]; 60 °C, 30 days): 94.5%
- Crystal form ([3]; 75% RH, 5 days): No change
- Purity (%) ([3]; 75% RH, 5 days): 97.5%
- Crystal form ([3]; 75% RH, 10 days): No change
- Purity (%) ([3]; 75% RH, 10 days): 97.1%
- Purity (%) ([3]; 75% RH, 30 days): 96.5%
- Purity (%) ([3]; Initial, 0 days): 98.1%

SMILES: C[C@H]1CC2(CCN(c3ccc(C(=O)N4CCC(CN5CCN(c6cccc(NC7CCC(=O)NC7=O)c6)CC5)CC4)cc3F)CC2)CN1c1ccc(C#N)c(Cl)c1 (stereo partly drawn) [Example 1, 2-Chloro-4-((3S)-8-(4-(4-((4-(3-((2,6-dioxopiperidin-3-yl)amino)phenyl)piperazin-1-yl)methyl)piperidine-1-carbonyl)-2-fluorophenyl)-3-methyl-2,8-diazaspiro[4.5]decan-2-yl)benzonitrile]
- DC50 (androgen receptor (AR)): 2.5 nM

SMILES: C[C@H]1CC2(CCN(c3ccc(C(=O)N4CCC(CN5CCN(c6cccc(N[C@H]7CCC(=O)NC7=O)c6)CC5)CC4)cc3F)CC2)CN1c1ccc(C#N)c(Cl)c1 [Example 1-1, 2-Chloro-4-((S)-8-(4-(4-((4-(3-(((S)-2,6-dioxopiperidin-3-yl)amino)phenyl)piperazin-1-yl)methyl)piperidine-1-carbonyl)-2-fluorophenyl)-3-methyl-2,8-diazaspiro[4.5]decan-2-yl)benzonitrile]
- DC50 (androgen receptor (AR)): 4.2 nM

SMILES: C[C@H]1CC2(CCN(c3ccc(C(=O)N4CCC(CN5CCN(c6cccc(N[C@@H]7CCC(=O)NC7=O)c6)CC5)CC4)cc3F)CC2)CN1c1ccc(C#N)c(Cl)c1 [Example 1-2, 2-Chloro-4-((S)-8-(4-(4-((4-(3-(((R)-2,6-dioxopiperidin-3-yl)amino)phenyl)piperazin-1-yl)methyl)piperidine-1-carbonyl)-2-fluorophenyl)-3-methyl-2,8-diazaspiro[4.5]decan-2-yl)benzonitrile]
- DC50 (androgen receptor (AR)): 14.2 nM
